Source: publication PMC7895462 (Neurochemical research, 2017)
Like-named read-outs stand apart in the source and are kept apart here.

Key:
[1] = tested on: MES-induced seizures; assay: Maximal electroshock; format: in vivo
[2] = in vivo; for Rat I.P. identification TOX: ip; for Rat P.O. identification TOX: po
[3] = tested on: 60 Hz corneal kindled seizures; conditions: for average seizure score (SEM): corneal kindled mouse
[4] = tested on: spontaneous bursting of a mEC-HC slice; assay: In vitro post-KA rat spontaneous bursting mEC-HC slice; format: cell-based
[5] = tested on: 60 Hz corneal kindled seizures; assay: animal or person; conditions: Mus musculus, ip
[6] = tested on: psychomotor seizures induced by 6 Hz 44 mA corneal stimulus; assay: 6 Hz 44 mA mouse test; format: in vivo; conditions: for Mouse I.P identification 44 mA / Mouse P.O. identification 44 mA: 0.5 and 2 h, default doses 30, 100, 300 mg/kg; for ED50: Mus musculus
[7] = tested on: MES-induced seizures; assay: Maximal electroshock; format: in vivo; conditions: for Mouse I.P identification MES / Mouse P.O. identification MES: 0.5 and 2 h, default doses 30, 100, 300 mg/kg; for ED50: Mus musculus
[8] = in vivo; conditions: mouse
[9] = in vivo; conditions: rat
[10] = for Mouse I.P identification TOX / Mouse P.O. identification TOX: 0.5 and 2 h, default doses 30, 100, 300 mg/kg
[11] = Minimal motor impairment; conditions: for TD50: rat, in vivo
[12] = Open field activity monitor of rats; format: in vivo; conditions: rat; i.p.; 45 and 60 mg/kg; 10 min; vs vehicle
[13] = read-out: Mouse CKM (I.P.) Quant (ED50), i.p.
[14] = ip, read-out: Mouse I.P. quantification 44 mA (ED50)
[15] = po, read-out: Mouse P.O. quantification 44 mA (ED50)
[16] = ip, read-out: Mouse I.P. quantification MES (ED50)
[17] = po, read-out: Mouse P.O. quantification MES (ED50)
[18] = read-out: Mouse CKM (I.P.) Quant (ED50)
[19] = ip, Rat I.P. quantification TOX (TD50)
[20] = po, Rat P.O. quantification TOX (TD50)
[21] = 30 mg/kg (n = 2 mice) and 40 mg/kg (n = 1 mouse)

CC(=O)Nc1ccc(O)cc1 [Acetaminophen, acetaminophen]
Rat I.P. identification MES ([1]; i.p.): −
Rat P.O. identification MES [1]: −
Rat I.P. identification TOX [2]: −
Rat P.O. identification TOX [2]: −
protected in the corneal kindled mouse ([3]; 20 mg/kg, i.p., 30 min after administration): 1/8
protected in the corneal kindled mouse ([3]; 80 mg/kg, i.p., 30 min after administration): 0/8
protected in the corneal kindled mouse ([3]; 120 mg/kg, i.p., 30 min after administration): 1/8
protected in the corneal kindled mouse ([3]; 150 mg/kg, i.p., 30 min after administration): 2/8
protected in the corneal kindled mouse ([3]; 175 mg/kg, i.p., 30 min after administration): 0/12
death of corneal kindled mice ([3]; 450 mg/kg, 24-hours later): 1/4
protected in the corneal kindled mouse ([3]; 450 mg/kg, i.p., 30 min after administration): 3/4
Mouse CKM (I.P.) ID ([3]; i.p.): +
amplitude of spontaneous bursts ([4]; 3000 μM): small, but significant increase
acute effects on spontaneous bursting in vitro ([4]; concentrations up to 1000 μM): did not identify any acute effects
ED50 [5, 13]: > 450 mg/kg
Mouse I.P identification 44 mA ([6]; i.p., 6 Hz 44 mA): −
Mouse P.O. identification 44 mA ([6]; 6 Hz 44 mA): −
Mouse I.P identification MES ([7]; i.p.): −
Mouse P.O. identification MES [7]: −

NC(=O)N1c2ccccc2C=Cc2ccccc21 [Carbamazepine, carbamazepine]
TD50 ([8]; po): 95.4 mg/kg
Rat I.P. identification MES ([1]; i.p.): +
Rat P.O. identification MES [1]: +
TD50 ([9]; ip): 22.9 mg/kg
TD50 ([9]; po): > 500 mg/kg
Rat I.P. identification TOX [2]: +
Rat P.O. identification TOX [2]: +
Mouse CKM (I.P.) ID ([3]; i.p.): +
protective index (PI), corneal kindled mouse ([3]; male, CF-1, mouse, in vivo, ip): 7.1
ED50 [5, 13]: 6.42 mg/kg
ED50 [6, 14]: 31.4 mg/kg
ED50 [6, 15]: 63.7 mg/kg
Mouse I.P identification 44 mA ([6]; i.p., 6 Hz 44 mA): +
Mouse P.O. identification 44 mA ([6]; 6 Hz 44 mA): +
ED50 [7, 16]: 8.38 mg/kg
ED50 [7, 17]: 11.3 mg/kg
Mouse I.P identification MES ([7]; i.p.): +
Mouse P.O. identification MES [7]: +

CN1C(=O)CC(=O)N(c2ccccc2)c2cc(Cl)ccc21 [Clobazam, clobazam]
TD50 ([8]; ip): 26.1 mg/kg
TD50 ([8]; po): 197 mg/kg
Rat I.P. identification MES ([1]; i.p.): −
Rat P.O. identification MES [1]: −
protective index (PI), corneal kindled mouse ([3]; calculated based on the i.p. TD50): 10.3
Mouse CKM (I.P.) ID ([3]; i.p.): +
Mouse I.P identification TOX ([10]; i.p.): +
Mouse P.O. identification TOX [10]: −
ED50 [5, 18]: 2.53 mg/kg
Rat I.P. identification TOX ([11]; i.p.): −
Rat P.O. identification TOX [11]: −
TD50 [11, 19]: 15.7 mg/kg
ED50 [6, 14]: 4.5 mg/kg
ED50 [6, 15]: 6.99 mg/kg
Mouse I.P identification 44 mA ([6]; i.p., 6 Hz 44 mA): +
Mouse P.O. identification 44 mA ([6]; 6 Hz 44 mA): +
ED50 [7, 16]: 16.5 mg/kg
ED50 [7, 17]: 29.9 mg/kg
Mouse I.P identification MES ([7]; i.p.): +
Mouse P.O. identification MES [7]: +

CC[C@@H](C(N)=O)N1CCCC1=O [Levetiracetam, levetiracetam]
TD50 ([8]; ip): > 1500 mg/kg
TD50 ([8]; po): > 500 mg/kg
Rat I.P. identification MES ([1]; i.p.): −
Rat P.O. identification MES [1]: −
Rat I.P. identification TOX [2]: −
Rat P.O. identification TOX [2]: −
Mouse CKM (I.P.) ID ([3]; i.p.): +
ED50 [6, 14]: > 1500 mg/kg
ED50 [6, 15]: > 500 mg/kg
Mouse I.P identification 44 mA ([6]; i.p., 6 Hz 44 mA): +
Mouse P.O. identification 44 mA ([6]; 6 Hz 44 mA): +
Mouse I.P identification MES ([7]; i.p.): −
Mouse P.O. identification MES [7]: −

OC[C@H]1O[C@@H](n2cnc3c(NC4CCCC4)ncnc32)[C@H](O)[C@@H]1O [N6-Cyclopentyladenosine, N^6-cyclopentyladenosine]
TD50 ([8]; ip): 0.94 mg/kg
TD50 ([8]; po): 6.94 mg/kg
Rat I.P. identification MES ([1]; i.p.): +
Rat P.O. identification MES [1]: +
average seizure score (SEM) ([3]; 0.1 mg/kg): 4.75 ± 0.25
average seizure score (SEM) ([3]; 2 mg/kg): 4.88 ± 0.13
Mouse CKM (I.P.) ID ([3]; i.p.): −
Mouse I.P identification TOX ([10]; i.p.): +
Mouse P.O. identification TOX [10]: +
Rat I.P. identification TOX ([11]; i.p.): +
Rat P.O. identification TOX [11]: +
TD50 [11, 20]: > 10 mg/kg
ED50 [6, 14]: 0.19 mg/kg
ED50 [6, 15]: 1.36 mg/kg
Mouse I.P identification 44 mA ([6]; i.p., 6 Hz 44 mA): +
Mouse P.O. identification 44 mA ([6]; 6 Hz 44 mA): +
ED50 [7, 16]: 1.01 mg/kg
ED50 [7, 17]: 4.43 mg/kg
Mouse I.P identification MES ([7]; i.p.): +
Mouse P.O. identification MES [7]: +

CCOC(=O)Nc1ccc(NCc2ccc(F)cc2)cc1N [Retigabine, retigabine]
TD50 ([8]; ip): 129 mg/kg
TD50 ([8]; po): > 500 mg/kg
Rat I.P. identification MES ([1]; i.p.): +
Rat P.O. identification MES [1]: +
Mouse CKM (I.P.) ID ([3]; i.p.): +
Mouse P.O. identification TOX [10]: +
ED50 [5, 18]: 13.7 mg/kg
Rat I.P. identification TOX ([11]; i.p.): +
Rat P.O. identification TOX [11]: +
TD50 [11, 19]: 23.4 mg/kg
TD50 [11, 20]: 64.4 mg/kg
ED50 [6, 14]: 32.5 mg/kg
ED50 [6, 15]: 75.1 mg/kg
Mouse I.P identification 44 mA ([6]; i.p., 6 Hz 44 mA): +
Mouse P.O. identification 44 mA ([6]; 6 Hz 44 mA): +
ED50 [7, 16]: 25.7 mg/kg
ED50 [7, 17]: 57 mg/kg
Mouse I.P identification MES ([7]; i.p.): +
Mouse P.O. identification MES [7]: +

Cc1ccsc1C(=CCCN1CCC[C@@H](C(=O)O)C1)c1sccc1C [Tiagabine, tiagabine]
TD50 ([8]; ip): 5.84 mg/kg
TD50 ([8]; po): 33.2 mg/kg
Rat I.P. identification MES ([1]; i.p.): −
Rat P.O. identification MES [1]: −
Rat I.P. identification TOX [2]: +
Rat P.O. identification TOX [2]: −
ED50 [6, 14]: 1.03 mg/kg
ED50 [6, 15]: 1.87 mg/kg
Mouse I.P identification 44 mA ([6]; i.p., 6 Hz 44 mA): +
Mouse P.O. identification 44 mA ([6]; 6 Hz 44 mA): +
Mouse I.P identification MES ([7]; i.p.): −
Mouse P.O. identification MES [7]: −

CCCC(CCC)C(=O)O [Valproic acid, valproic acid]
TD50 ([8]; ip): > 300 mg/kg
TD50 ([8]; po): < 300 mg/kg
Rat I.P. identification MES ([1]; i.p.): −
Rat P.O. identification MES [1]: −
Rat I.P. identification TOX [2]: −
Rat P.O. identification TOX [2]: −
Mouse CKM (I.P.) ID ([3]; i.p.): +
Mouse CKM (I.P.) Quant (ED50) ([3]; i.p.): 94.02 mg/kg
protective index (PI), corneal kindled mouse ([3]; male, CF-1, mouse, in vivo, ip): > 94
ED50 [5, 13]: 94 mg/kg
ED50 [6, 14]: 239 mg/kg
ED50 [6, 15]: > 300 mg/kg
Mouse I.P identification 44 mA ([6]; i.p., 6 Hz 44 mA): +
Mouse P.O. identification 44 mA ([6]; 6 Hz 44 mA): −
ED50 [7, 16]: > 60 mg/kg
ED50 [7, 17]: > 300 mg/kg
Mouse P.O. identification MES [7]: −

Clc1cccc(N2CCNCC2)c1 [m-CPP, meta-chlorophenylpiperazine]
Rat I.P. identification MES ([1]; i.p.): +
Rat I.P. quantification MES (ED50) ([1]; i.p.): 37.1 mg/kg
Rat P.O. identification MES [1]: +
protected in the corneal kindled mouse ([3]; 20 mg/kg, i.p., 15 min prior to testing): 0/8
protection in the corneal kindled mouse [3, 21]: lack of protection
adverse side effects in corneal kindled mice ([3]; at the highest doses tested): severe adverse side effects, including splaying, tremors, and mortality following seizure
Mouse CKM (I.P.) ID ([3]; i.p.): −
total distance travelled in the open field [12]: significant, dose-dependent reduction
MMI in corneal kindled mice [10, 21]: significant MMI in all animals tested
mice with significant MMI on the rotarod assay ([10]; corneal kindled mice, 20 mg/kg, i.p., 15 min): 3/8
Mouse I.P identification TOX ([10]; i.p.): +
Mouse I.P. quantification TOX (TD50) ([10]; i.p., rotorod): 52.6 mg/kg
Mouse P.O. identification TOX [10]: −
Rat I.P. identification TOX ([11]; i.p.): −
Rat I.P. quantification TOX (TD50) ([11]; i.p.): <10 mg/kg
Rat P.O. identification TOX [11]: −
Mouse I.P identification 44 mA ([6]; i.p., 6 Hz 44 mA): −
Mouse I.P. quantification 44 mA (ED50) ([6]; i.p., 6 Hz 44 mA, at time of peak effect): >55 mg/kg
Mouse P.O. identification 44 mA ([6]; 6 Hz 44 mA): −
Mouse I.P identification MES ([7]; i.p.): −
Mouse I.P. quantification MES (ED50) ([7]; i.p., at time of peak effect): >60 mg/kg
protective index (PI), i.p., MES test ([7]; mouse, i.p.): less than 1.0
Mouse P.O. identification MES [7]: −
mice protected in the MES test ([7]; screening, at 10 and 30 mg/kg): one out of four
